Laboratory results: DBAASP
Converted amounts (≈) assume the structure as drawn. Each block holds one compound with its values, some of them ahead of it.

Legend:
Experiment in all cases: ≥ marks a high value that may be exact or a test limit, other limits are often not marked, values filed in µg/mL are converted to µM
[1] = tested on: Candida albicans JCM 2085
[2] = tested on: Staphylococcus aureus JCM 2874
[3] = tested on: Bacillus cereus JCM 2152
[4] = tested on: Ramulariopsis gossypii
[5] = tested on: Candida albicans ATCC 90028
[6] = tested on: Escherichia coli ATCC 25922
[7] = tested on: Pseudomonas syringae pv. tabaci
[8] = tested on: Bacillus cereus ATCC 14579
[9] = tested on: Cryptococcus neoformans ATCC 28957
[10] = tested on: Xanthomonas campestris pv. citri
[11] = tested on: Bacillus subtilis ATCC 23857
[12] = tested on: Rhizoctonia solani
[13] = tested on: Fusarium oxysporum f.sp. vasinfectum
[14] = tested on: Staphylococcus aureus ATCC 25923
[15] = tested on: Pectobacterium carotovorum
[16] = tested on: Fusarium oxysporum
[17] = tested on: Pseudomonas aeruginosa ATCC 27853
[18] = tested on: Fusarium solani
[19] = tested on: Trichoderma asperellum
[20] = tested on: Klebsiella pneumoniae
[21] = tested on: Pseudomonas aeruginosa PA-W1
[22] = tested on: Staphylococcus aureus NCTC 8325-4
[23] = tested on: Pseudomonas aeruginosa PAO1
[24] = tested on: Escherichia coli K-12
[25] = tested on: Staphylococcus aureus
[26] = tested on: Pseudomonas aeruginosa CGMCC 1.2421
[27] = tested on: Klebsiella pneumoniae CGMCC 1.1736
[28] = tested on: Staphylococcus aureus CGMCC 1.8721
[29] = tested on: Bacillus subtilis CGMCC 1.3376
[30] = tested on: Escherichia coli CGMCC 1.8732
[31] = tested on: Staphylococcus epidermidis CGMCC 1.4260
[32] = tested on: Acinetobacter baumannii Q12-0867
[33] = tested on: Enterococcus faecalis JH-2-2
[34] = tested on: Pseudomonas aeruginosa Q14-0208
[35] = tested on: Acinetobacter baumannii Q12-0809
[36] = tested on: Klebsiella pneumoniae NCTC 13442
[37] = tested on: Staphylococcus aureus MRSA-15
[38] = tested on: Salmonella typhimurium SL1344
[39] = tested on: Campylobacter jejuni NCTC 11351
[40] = tested on: Staphylococcus aureus ATCC 29213
[41] = tested on: Staphylococcus aureus NCTC 12493
[42] = tested on: Pseudomonas aeruginosa Q14-0890
[43] = tested on: Staphylococcus aureus Q14-0325
[44] = tested on: Klebsiella pneumoniae Q14-0146
[45] = tested on: Escherichia coli
[46] = tested on: Listeria monocytogenes NCTC 11994
[47] = tested on: Klebsiella pneumoniae Q14-0095
[48] = tested on: Acinetobacter baumannii Q13-0717
[49] = tested on: Acinetobacter baumannii
[50] = tested on: Staphylococcus aureus Q14-0320
[51] = tested on: Staphylococcus aureus RN4220
[52] = tested on: Campylobacter jejuni
[53] = tested on: Klebsiella pneumoniae ATCC 700603

MIC [1]: 27 µM (≈ 64 µg/mL)
MIC [2]: 27 µM (≈ 64 µg/mL)
MIC [3]: 6.76 µM (≈ 16 µg/mL)
SMILES: CC[C@H](C)[C@H](NC(=O)[C@H](CCCCN)NC(=O)[C@H](CO)NC(=O)[C@@H](NC(=O)[C@H](CC(C)C)NC(=O)[C@H](CO)NC(=O)[C@@H]1CCCN1C(=O)[C@H](CC(C)C)NC(=O)[C@H](Cc1ccccc1)NC(=O)[C@H](CC(N)=O)NC(=O)[C@H](C)NC(=O)[C@H](CC(C)C)NC(=O)[C@H](C)NC(=O)CNC(=O)[C@@H](NC(=O)[C@@H](NC(=O)[C@H](CO)NC(=O)CNC(=O)[C@H](Cc1ccccc1)NC(=O)[C@@H](N)Cc1ccccc1)[C@@H](C)O)[C@@H](C)CC)[C@@H](C)CC)C(=O)N[C@@H](CCCN=C(N)N)C(=O)N[C@@H](CC(N)=O)C(N)=O [FFGSTIGALANFLPSLISKIRN]

MIC [4]: 2 µM (≈ 3.46 µg/mL)
MIC [5]: 8 µM (≈ 13.9 µg/mL)
MIC [6]: 2 µM (≈ 3.46 µg/mL)
MIC [7]: 4 µM (≈ 6.93 µg/mL)
MIC [8]: 3.33 µM (≈ 5.77 µg/mL)
MIC [9]: 4 µM (≈ 6.93 µg/mL)
MIC [10]: 1 µM (≈ 1.73 µg/mL)
MIC [11]: 1 µM (≈ 1.73 µg/mL)
MIC [12]: 16 µM (≈ 27.7 µg/mL)
MIC [13]: 4 µM (≈ 6.93 µg/mL)
MIC [14]: 4 µM (≈ 6.93 µg/mL)
MIC [15]: 1 µM (≈ 1.73 µg/mL)
MIC [16]: 4 µM (≈ 6.93 µg/mL)
MIC [17]: 5.33 µM (≈ 9.23 µg/mL)
MIC [18]: 16 µM (≈ 27.7 µg/mL)
MIC [19]: 16 µM (≈ 27.7 µg/mL)
SMILES: CC(C)C[C@H](NC(=O)[C@H](C)NC(=O)[C@H](CC(C)C)NC(=O)[C@@H](NC(=O)[C@H](C)NC(=O)[C@H](CCCCN)NC(=O)[C@H](CC(C)C)NC(=O)[C@H](CC(C)C)NC(=O)[C@@H](NC(=O)[C@H](Cc1cnc[nH]1)NC(=O)[C@@H](NC(=O)[C@H](CCCCN)NC(=O)[C@H](CO)NC(=O)[C@H](CC(C)C)NC(=O)[C@@H](NC(=O)[C@@H](N)CCCCN)C(C)C)C(C)C)[C@@H](C)O)C(C)C)C(N)=O [KVLSKVHTLLKAVLAL]

MIC [20]: 31.3 µM (≈ 45.9 µg/mL)
MIC [21]: 15.6 µM (≈ 22.9 µg/mL)
MIC [22]: 15.6 µM (≈ 22.9 µg/mL)
MIC [23]: 7.81 µM (≈ 11.4 µg/mL)
MIC [24]: 7.81 µM (≈ 11.4 µg/mL)
MIC [25]: 62.5 µM (≈ 91.6 µg/mL)
SMILES: CC(C)C[C@H](NC(=O)[C@H](CCCCN)NC(=O)[C@H](CCCCN)NC(=O)[C@H](CC(C)C)NC(=O)[C@H](CC(C)C)NC(=O)[C@H](CCCCN)NC(=O)[C@H](CCCCN)NC(=O)[C@H](CC(C)C)NC(=O)[C@H](CC(C)C)NC(=O)[C@H](CCCCN)NC(=O)[C@H](CCCCN)NC(=O)[C@@H](N)CC(C)C)C(N)=O [LKKLLKKLLKKL]

MIC [26]: 6.25 µM (≈ 15.5 µg/mL)
MIC [27]: 12.5 µM (≈ 31 µg/mL)
MIC [28]: 6.25 µM (≈ 15.5 µg/mL)
MIC [29]: 6.25 µM (≈ 15.5 µg/mL)
MIC [30]: 12.5 µM (≈ 31 µg/mL)
MIC [31]: 3.13 µM (≈ 7.75 µg/mL)
SMILES: CC[C@H](C)[C@H](NC(=O)[C@H](CO)NC(=O)CNC(=O)[C@@H](NC(=O)[C@@H](N)CCCN=C(N)N)[C@@H](C)CC)C(=O)N[C@@H](CC(C)C)C(=O)NCC(=O)N[C@@H](C)C(=O)N[C@@H](CC(C)C)C(=O)N[C@@H](C)C(=O)N[C@@H](CCCCN)C(=O)NCC(=O)N[C@@H](CC(C)C)C(=O)N1CCC[C@H]1C(=O)N[C@H](C(=O)N[C@@H](CC(C)C)C(=O)N[C@H](C(=O)N[C@@H](CO)C(=O)N[C@@H](Cc1c[nH]c2ccccc12)C(=O)N[C@H](C(=O)N[C@@H](CCCCN)C(=O)N[C@@H](CC(N)=O)C(=O)N[C@@H](CCCN=C(N)N)C(N)=O)[C@@H](C)CC)[C@@H](C)CC)[C@@H](C)O [RIGSILGALAKGLPTLISWIKNR]

MIC [32]: 9.6 µM (≈ 16 µg/mL)
MIC [33]: ≥ 38.4 µM
MIC [34]: ≥ 76.8 µM
MIC [35]: ≥ 38.4 µM
MIC [36]: ≥ 76.8 µM
MIC [37]: ≥ 38.4 µM
MIC [38]: ≥ 38.4 µM
MIC [39]: ≥ 76.8 µM
MIC [40]: 76.8 µM (≈ 128 µg/mL)
MIC [41]: ≥ 38.4 µM
MIC [42]: ≥ 38.4 µM
MIC [43]: ≥ 76.8 µM
MIC [23]: 38.4 µM (≈ 64 µg/mL)
MIC [44]: ≥ 76.8 µM
MIC [45]: 76.8 µM (≈ 128 µg/mL)
MIC [46]: ≥ 38.4 µM
MIC [47]: ≥ 76.8 µM
MIC [24]: ≥ 38.4 µM
MIC [48]: 19.2 µM (≈ 32 µg/mL)
MIC [49]: ≥ 76.8 µM
MIC [50]: ≥ 76.8 µM
MIC [51]: ≥ 38.4 µM
MIC [17]: 76.8 µM (≈ 128 µg/mL)
MIC [52]: ≥ 76.8 µM
MIC [53]: > 76.8 µM
SMILES: CSCC[C@H](NC(=O)[C@@H](N)[C@@H](C)O)C(=O)N[C@@H](CO)C(=O)N[C@@H](CC(C)C)C(=O)N[C@@H](CCCN=C(N)N)C(=O)N[C@@H](Cc1ccccc1)C(=O)N[C@@H](Cc1c[nH]c2ccccc12)C(=O)N[C@@H](CCCN=C(N)N)C(=O)N[C@@H](Cc1c[nH]c2ccccc12)C(=O)N[C@@H](CCCCN)C(=O)N[C@H](C(=O)N[C@@H](CCCN=C(N)N)C(=O)O)C(C)C [TMSLRFWRWKVR]
